Common to all, as to assay type: in vivo
In one assay the test system is Pyrenophora teres. The assay is described as follows: Pyrenophora teres test (barley)/curative. As to conditions: 6.25 g/ha, curative, 7 days after inoculation. On the procedure:
Solvent: 25 parts by weight of N,N-dimethylacetamide
Emulsifier: 0.6 part by weight of alkylaryl polyglycol ether
To produce a suitable preparation of active compound, 1 part by weight of active compound or active compound combination is mixed with the stated amounts of solvent and emulsifier, and the concentrate is diluted with water to the desired concentration.
To test for curative activity, young plants are sprayed with a conidia suspension of Pyrenophora teres. The plants remain in an incubation cabin at 20° C. and 100% relative atmospheric humidity for 48 hours. The plants are subsequently sprayed with the preparation of active compound at the stated application rate.
The plants are placed in a greenhouse at a temperature of about 20° C. and a relative atmospheric humidity of about 80%.
Evaluation is carried out 7 days after the inoculation. 0% means an efficacy which corresponds to that of the control, whereas an efficacy of 100% means that no infection is observed.

A further assay concerns Phytophthora infestans. Nature of the assay: whole plant or invertebrate.
Another assay has as its system Fusarium nivale. Nature of the assay: Fusarium nivale test (triticale)/seed treatment. The note with it: about 3 weeks after sowing. How it is done:
The active compounds are applied as a dry seed dressing. This is prepared by extending the respective active compound with ground mineral to give a finely pulverulent mixture which ensures uniform distribution on the seed surface.
To dress the seed, the infected seed together with the seed dressing is shaken for 3 minutes in a sealed glass flask.
2×100 corns of triticale are sown at a depth of 1 cm in standard soil and cultivated in a greenhouse at a temperature of about 10° C. and a relative atmospheric humidity of about 95% in seed trays which receive a light regimen of 15 hours per day.
About 3 weeks after sowing, the plants are evaluated for symptoms of snow mould. 0% means an efficacy which corresponds to that of the untreated control, while an efficacy of 100% means that no disease is observed.

Where [1] appears, read: Phytophthora infestans, in Solanum lycopersicum, 72 h, read-out: % efficacy.

The structures appear in SMILES notation.

Turning to `CC(C)(C)C(O)C(Oc1ccc(Cl)cc1)n1cncn1` (stereo not shown) [(F), triadimenol], the Efficacy in % in the assay on Pyrenophora teres was determined as 0%.

Take `CCNC(=O)NC(=O)/C(C#N)=N/OC` [Cymoxanil (M), cymoxanil]: the “% efficacy” value in the assay on Phytophthora infestans (in vivo) is given as 12%.

For the compound `COc1ccc(/C(=C\C(=O)N2CCOCC2)c2ccc(Cl)cc2)cc1OC` [Dimetomorph (L), dimetomorph], the Emax at 1 g/ha with Phytophthora infestans (setting [1]) came out at 0%.

In turn, `N#Cc1c[nH]cc1-c1cccc(Cl)c1Cl` [(Fenpiclonil) z, fenpiclonil] gave an Efficacy in % in the assay on Fusarium nivale (75 mg/kg of seed) of 67%.

Consider `CON=C(C1=NOCCO1)c1ccccc1Oc1ncnc(Oc2ccccc2Cl)c1F` [(I)], for which, in the assay on Pyrenophora teres, the Efficacy in % was determined as 0%.

In the assay with Fusarium nivale (25 mg/kg of seed), `O=C(Nc1ccccc1)N(Cc1ccc(Cl)cc1)C1CCCC1` [(Pencycuron) P, pencycuron] had an Efficacy in % of 29%.

Consider `CCC1(C(=O)NC(C)c2ccc(Cl)cc2)C(C)C1(Cl)Cl` [(ω), N-(R)-[1-(4-chloro-phenyl)-ethyl]-2,2-dichloro-1ethyl-3t-methyl-1r-cyclopropane-carboxamide], for which the Emax at 5 g/ha in the assay on Phytophthora infestans (setting [1]) stood at 3%.

Source of the values: US6509343B1 (priority 1996, dated 2003).
